The Ki is the equilibrium dissociation constant of an inhibitor or competing ligand from its target. By GI50 is commonly meant the concentration that inhibits growth by half.

This is an account of results in paper PMC10096391, “Discovery of N,4-Di(1H-pyrazol-4-yl)pyrimidin-2-amine-Derived CDK2 Inhibitors as Potential Anticancer Agents: Design, Synthesis, and Evaluation” (Molecules, 2023).

For assay [1], the system named is A2780 cells. In words: Cell cycle analysis by flow cytometry, A2780. Format: cell-based. The note with it: A2780, 0.5 µM, 48 h. As for the experimental part: (§1) The effect of the compounds on cell cycle distribution was evaluated following a previously reported method. Briefly, six-well plates (Sigma-Aldrich, NSW, Australia) were seeded with about 1–2 × 10^5 cells/well in 2 mL growth medium, incubated at 37 °C and 5% CO2 overnight, and treated with various concentrations of the test compounds and incubated for 48 h. The wells were collected by trypsinization, transferred into fluorescence-activating cell sorting (FACS) tubes, washed with 1 × phosphate-buffered saline (1 × PBS) twice, fixed in 70% (v/v) ice-cold ethanol for 15 min, and centrifuged at 300× g for 5 min. The cell pellets were then collected, stained with 200 µL of the cell cycle solution (comprising 50.0 μg/mL PI, 0.1 mg/mL RNase A, and 0.05% Triton X-100), and incubated for 1.5 h at room temperature in the dark. Finally, the DNA content was determined by a flow cytometer (CytoFLEX) and analyzed by CytExpert 2.1 software (Beckman Coulter, Brea, CA, USA).

The test system of assay [2] is OVCAR5 cells. In words: Cell cycle analysis by flow cytometry, OVCAR5. It counts as cell-based. The note with it: OVCAR5, 0.5 µM, 48 h. How it is done:
as §1
(In general: A flow cytometer gives signals particle by particle.)

In assay [3] the test system is A2780 cells. In words: Annexin V/PI apoptosis assay, A2780. The note with it: A2780, 0.5 µM, 48 h. Format: cell-based. How it is done:
(§2) Annexin V-fluorescein isothiocyanate (FITC) apoptosis detection kit I (consisting of a ten-time stock solution of binding buffer, FITC–annexin V, and PI staining solution) was used to determine the effect of the compounds on cancer cell survival as previously reported. Briefly, six-well plates (Sigma-Aldrich, NSW, Australia) were seeded with about 1–2 × 10^5 cells/well in 2 mL growth medium, incubated at 37 °C and 5% CO2 overnight, treated with various concentrations of the test compounds, and incubated for 48 h. The wells were collected by trypsinization, transferred into FACS tubes, washed twice with 1 × PBS, and centrifuged at 300× g for 5 min. The pellets were then suspended in 100 µL of 1 × binding buffer and incubated in the dark with 3 µL of PI and 3 µL of FITC-conjugated annexin V solutions for 15 min. Finally, 200 µL of binding buffer was added to each sample and analyzed by the CytoFLEX cytometer. The extent of apoptotic cell death was quantified as the sum of the percentages of early apoptotic cells (annexin V-positive and PI-negative) and late apoptotic cells (both annexin–V- and PI-positive) and presented graphically as a contour diagram relative to the untreated control.

Assay [4] concerns OVCAR5 cells. In words: Annexin V/PI apoptosis assay, OVCAR5. It counts as cell-based. The note with it: OVCAR5, 0.5 µM, 48 h. As for the experimental part:
as §2

The subject of assay [5] is A2780 cells. Kind of assay: Colony formation (crystal violet), A2780. Format: cell-based. The note with it: A2780, 10 days; 15 at 0.5 and 2 µM, CYC065 at 0.5 µM. As for the experimental part:
(§3) Briefly, ovarian cancer cells (i.e., A2780, OVCAR5, and OV90) seeded in six-well plates were adhered for 6 h and treated with 15. The medium that contained the compound was then changed every 72 h. Ten days after treatment, the cells were washed with PBS, fixed, and stained with crystal violet staining solution (0.05% crystal violet, 1% formaldehyde, 1% PBS, and 1% ethanol), and colonies were quantified using ImageJ software (National Institute of Health, Maryland, USA), with data presented as percentages of the control cells.

In assay [6] the test system is OVCAR5 cells. Kind of assay: Colony formation (crystal violet), OVCAR5. Format: cell-based. The note with it: OVCAR5, 10 days; 15 at 0.5 and 2 µM, CYC065 at 0.5 µM. As for the experimental part:
as §3

In the next assay the test system is OV90 cells. In words: Colony formation (crystal violet), OV90. Format: cell-based. The note with it: OV90, 10 days; 15 at 0.5 and 2 µM, CYC065 at 0.5 µM. As for the experimental part: as §3
The target in a further assay is CDK1/cyclin B (CDK1B) (Homo sapiens, UniProt P06493). The arrangement: method as in PMID 36706608. The note with it: previously reported data for 1; cited from earlier work.
The next assay addresses CDK2/cyclin E (CDK2E) (Homo sapiens, UniProt P24941). Further details: method as in PMID 36706608. The note with it: previously reported data for 1; cited from earlier work.
A further assay concerns the target CDK5/p25 (CDK5p25) (Homo sapiens, UniProt Q00535). Further details: method as in PMID 36706608. The note with it: previously reported data for 1; cited from earlier work.
In a further assay the target is CDK9/cyclin T1 (CDK9T1) (Homo sapiens, UniProt P50750). Further details: method as in PMID 36706608. The note with it: previously reported data for 1; cited from earlier work.
The subject of assay [7] is A2780 ovarian cancer cells. The arrangement: method as in PMID 36706608. The note with it: previously reported data for 1; cited from earlier work.

CDK5/p25 (CDK5p25), sequence (Q00535 whole entry): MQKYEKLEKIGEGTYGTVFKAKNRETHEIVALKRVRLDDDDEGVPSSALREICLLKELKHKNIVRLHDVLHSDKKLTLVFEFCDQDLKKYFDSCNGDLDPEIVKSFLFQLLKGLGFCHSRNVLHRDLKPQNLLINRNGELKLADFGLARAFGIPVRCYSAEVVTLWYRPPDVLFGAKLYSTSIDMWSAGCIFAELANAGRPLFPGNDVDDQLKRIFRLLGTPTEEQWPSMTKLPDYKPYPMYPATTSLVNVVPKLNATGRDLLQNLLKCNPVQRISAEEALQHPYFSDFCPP
CDK5/p25 (CDK5p25), sequence (Q15078 99-307 partner limits assumed): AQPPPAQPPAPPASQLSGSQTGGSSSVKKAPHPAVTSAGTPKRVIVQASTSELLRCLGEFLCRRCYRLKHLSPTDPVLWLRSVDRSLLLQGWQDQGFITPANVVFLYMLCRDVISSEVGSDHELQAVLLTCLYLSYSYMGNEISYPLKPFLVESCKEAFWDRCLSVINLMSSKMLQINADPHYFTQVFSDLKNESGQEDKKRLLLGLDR
CDK1/cyclin B (CDK1B), sequence (P06493 whole entry): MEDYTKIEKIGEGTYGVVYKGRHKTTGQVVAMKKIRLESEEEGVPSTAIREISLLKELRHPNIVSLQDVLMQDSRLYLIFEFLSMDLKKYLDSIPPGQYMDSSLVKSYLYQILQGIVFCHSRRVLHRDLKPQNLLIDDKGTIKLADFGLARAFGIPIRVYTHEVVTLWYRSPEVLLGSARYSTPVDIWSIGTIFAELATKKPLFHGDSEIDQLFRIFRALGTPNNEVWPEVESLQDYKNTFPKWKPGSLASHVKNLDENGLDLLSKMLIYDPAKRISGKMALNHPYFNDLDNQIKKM
CDK1/cyclin B (CDK1B), sequence (P14635 whole entry partner): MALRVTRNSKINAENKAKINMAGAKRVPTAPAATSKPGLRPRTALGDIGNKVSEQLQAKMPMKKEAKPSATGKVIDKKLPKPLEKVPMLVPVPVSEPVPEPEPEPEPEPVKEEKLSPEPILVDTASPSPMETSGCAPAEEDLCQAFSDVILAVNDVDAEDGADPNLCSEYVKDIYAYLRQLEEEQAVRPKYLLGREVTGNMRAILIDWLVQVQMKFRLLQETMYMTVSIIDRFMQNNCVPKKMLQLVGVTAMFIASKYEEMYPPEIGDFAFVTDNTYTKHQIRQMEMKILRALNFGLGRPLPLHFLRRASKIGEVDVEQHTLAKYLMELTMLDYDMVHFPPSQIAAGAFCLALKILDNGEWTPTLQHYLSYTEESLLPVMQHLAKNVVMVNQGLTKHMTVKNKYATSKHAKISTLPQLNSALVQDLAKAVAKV
CDK9/cyclin T1 (CDK9T1), sequence (P50750 whole entry): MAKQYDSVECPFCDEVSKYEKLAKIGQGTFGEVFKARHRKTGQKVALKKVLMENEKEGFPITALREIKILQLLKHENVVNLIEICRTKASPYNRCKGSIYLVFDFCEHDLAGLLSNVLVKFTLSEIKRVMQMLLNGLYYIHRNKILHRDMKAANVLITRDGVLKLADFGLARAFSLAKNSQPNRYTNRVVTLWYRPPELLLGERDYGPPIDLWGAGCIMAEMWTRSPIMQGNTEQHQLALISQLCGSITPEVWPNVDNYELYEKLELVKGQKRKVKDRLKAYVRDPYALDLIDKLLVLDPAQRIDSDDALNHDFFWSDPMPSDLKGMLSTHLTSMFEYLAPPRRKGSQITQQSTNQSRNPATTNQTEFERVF
CDK9/cyclin T1 (CDK9T1), sequence (O60563 whole entry partner): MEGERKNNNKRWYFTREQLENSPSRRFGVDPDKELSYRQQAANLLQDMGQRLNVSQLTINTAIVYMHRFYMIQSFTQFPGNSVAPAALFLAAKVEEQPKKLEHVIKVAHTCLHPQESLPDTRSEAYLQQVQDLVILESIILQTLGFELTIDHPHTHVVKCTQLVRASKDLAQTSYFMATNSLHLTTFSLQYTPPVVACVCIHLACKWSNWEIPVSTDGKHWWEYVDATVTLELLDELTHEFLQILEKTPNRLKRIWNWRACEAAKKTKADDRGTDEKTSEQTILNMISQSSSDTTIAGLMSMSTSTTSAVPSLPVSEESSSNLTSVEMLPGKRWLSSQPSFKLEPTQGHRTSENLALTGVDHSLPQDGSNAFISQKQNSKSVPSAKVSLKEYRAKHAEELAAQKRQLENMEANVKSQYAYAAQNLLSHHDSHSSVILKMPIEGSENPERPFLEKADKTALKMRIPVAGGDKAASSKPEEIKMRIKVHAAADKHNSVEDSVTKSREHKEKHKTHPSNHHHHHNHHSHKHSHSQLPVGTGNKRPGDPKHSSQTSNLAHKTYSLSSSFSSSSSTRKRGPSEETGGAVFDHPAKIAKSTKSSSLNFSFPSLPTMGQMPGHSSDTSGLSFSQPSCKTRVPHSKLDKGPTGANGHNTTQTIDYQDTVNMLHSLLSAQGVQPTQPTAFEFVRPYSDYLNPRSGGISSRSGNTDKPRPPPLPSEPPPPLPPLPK

`CC[C@H](Nc1nc(NCc2cnc(C)cc2C)c2ncn(C(C)C)c2n1)[C@@H](C)O` [CYC065, reference compound] yielded a S-phase cells in the assay on A2780 cells [1] of 24%. In the assay on A2780 cells [1], this compound registered a Sub-G1 cells of 27%. Moreover, in the assay with OVCAR5 cells [2], the “increment in the subpopulation of G2/M cells compared to the vehicle control” value was 12%. Also, the entries for the “apoptosis (annexin V positive, early + late)” value in the assay with A2780 cells [3] and in the assay with OVCAR5 cells [4] were 73% and 16%, respectively. For the same compound, the viability at 0.5 µM in the assay on A2780 cells [3] (Homo sapiens, read-out: Q1-LL, viable cells) was found to be 26%; in the assay on OVCAR5 cells [4] (Homo sapiens, OVCAR-5, read-out: Q1-LL, viable cells), 81.9%. The “effect on colony formation” value with A2780 cells [5] is “reduced”; in the assay with OVCAR5 cells [6] it was “lowest effect”; in the assay on OV90 cells, “reduced”.

Take `Cn1cc(-c2nc(Nc3cccc(S(N)(=O)=O)c3)ncc2F)cn1` [Compound 1, 3-((5-fluoro-4-(1-methyl-1H-pyrazol-4-yl)pyrimidin-2-yl)amino)benzenesulfonamide]: the inhibitory constant (Ki) at CDK1/cyclin B (CDK1B) is 5 nM; on CDK2/cyclin E (CDK2E), 23 nM; at CDK5/p25 (CDK5p25), 77 nM; at CDK9/cyclin T1 (CDK9T1), 26 nM. In addition, the GI50 in assay [7] was 18 nM.
